Results: patent publication US20040063790A1, “Methods for inhibition of angiogenesis” (The Scripps Research Institute, priority 1996, published 2004)
Like-named read-outs stand apart in the source and are kept apart here. Blank lines part the entries; values can stand above or below the compound they belong to. Where a SMILES comes first, the peptide text is derived from it. [ ]: non-standard residue; d: D form.

Assays:
[1] = system: bFGF-induced angiogenesis; assay: CAM assay, growth factor-induced angiogenesis, intravenous application; assay type: in vivo, chick; conditions: for reducing the number of branch points of new blood vessels: FIG. 26, in decreasing order of inhibition 14, 10, 9, 12, compared to bFGF control and compound 7; for inhibition of formation of new blood vessels induced by bFGF: 250 μg/ml, 18 hours after bFGF treatment, FIG. 12; for anti-angiogenic properties (branch points): FIG. 27, 100 μg/embryo, compared to bFGF control and compound 16
Protocol: J. Pathol., 79:597 (1975). CAMs were prepared from chick embryos for subsequent induction of angiogenesis and inhibition thereof as described in Examples 4 and 5, respectively. Ten day old chick embryos were obtained from McIntyre Poultry (Lakeside, Calif.) and incubated at 37° C. with 60% humidity. A small hole was made through the shell at the end of the egg directly over the air sac with the use of a small crafts drill (Dremel, Division of Emerson Electric Co. Racine Wis.). A second hole was drilled on the broad side of the egg in a region devoid of embryonic blood vessels determined previously by candling the egg. […] A 1.0 centimeter (cm)×1.0 cm square window was cut through the shell over the dropped CAM with the use of a small model grinding wheel (Dremel). The small window allowed direct access to the underlying CAM.
Angiogenesis was induced by placing a 5 millimeter (mm)×5 mm Whatman filter disk (Whatman Filter paper No.1) saturated with Hanks Balanced Salt Solution (HBSS, GIBCO, Grand Island, N.Y.) or HBSS containing 150 nanograms/milliliter (ng/ml) recombinant basic fibroblast growth factor (bFGF) (Genzyme, Cambridge, Mass.) on the CAM of a 10-day chick embryo in a region devoid of blood vessels and the windows were latter sealed with tape. In other assays, 125 ng/ml bFGF was also effective at inducing blood vessel growth. For assays where inhibition of angiogenesis ws evaluated with intravenous injections of antagonists, angiogenesis was first induced with 1-2 μg/ml bFGF in fibroblast growth medium. Angiogenesis was monitored by photomicroscopy after 72 hours. CAMs were snap frozen, and 6 um cryostat sections were fixed with acetone and stained by immunofluorescence as described in Example 3C with 10 μg/ml of either anti-β1 monoclonal antibody CSAT or LM609.
For CAM preparations in which angiogenesis was induced with 1-2 μg/ml bFGF as previously described, synthetic peptides 69601 (control) and 66203 (SEQ ID NO: 5) were separately intravenously injected into CAM preparations 18 hours after bFGF induction of angiogenesis. The preparations were maintained for an additional 36-40 hours after which time the number of branch points were determined as previously described.
In other assays, peptide 85189 (SEQ ID NO: 15) was evaluated for inhibiting bFGF-induced angiogenesis in the CAM assay over a dosage range of 10 μg/embryo to 300 μg/embryo. The assay was performed as previously described.
In still further assays, peptide 85189 was compared to peptides 69601 and 66203 for anti-angiogenesis activity. The assay was performed as described above with the exception that 50 μg peptide were used.
The effectiveness of the different salt formulations of peptide 85189 was also evaluated in similar bFGF-induced CAM assays. The peptides were used at 100 μg/embryo. […] Untreated CAMs, labeled as “no cytokine” had approximately […] as many branch points as that seen with bFGF treatment, respectively 70 versus 190.
With the above-described protocol, the effect of MMP-2 fusion proteins, CTMMP-2(2-4), also referred to as CTMMP-2(445-467) and CTMMP-2(10-1), also referred to as CTMMP-2(274-637) was also evaluated. The assay was performed as previously described with the exception that 50 μg of fusion protein was administered to the bFGF-treated embryos. The effect of fusion protein treatment was assessed at 24 hours, 48 hours and 72 hours.
The 10 day old CAM preparation was used as previously described in Example 5A. Twenty-four hours after bFGF-induced angiogenesis was initiated, the organic peptidomimetics referred to as compounds 16 (81218), 17 (87292) and 18 (87293) were separately intravenously injected into the CAM preparation in a volume of 100 μl at a concentration of 1 mg/ml (100 μg/embryo) in 20% tetraglycol-PBS at pH 7.0. In parallel assays, compounds 7 (96112), 9 (99799), 10 (96229), 12 (112854) and 14 (96113) were similarly evaluated. […]

αIIbβ3 = target: T1, αIIbβ3 (Homo sapiens, UniProt P05106+P08514); assay: Ligand-receptor binding assay, immobilized αIIbβ3
T1 construct: selected purified integrins were separately immobilized in Titertek microtiter wells
Excerpt: (§1) Herein described is a method of identifying antagonists in a ligand-receptor binding assay in which the receptor is immobilized to a solid support and the ligand and antagonist are soluble. Also described is a ligand-receptor binding assay in which the ligand is immobilized to a solid support and the receptor and antagonists are soluble.
(§2) Briefly, selected purified integrins were separately immobilized in Titertek microtiter wells at a coating concentration of 50 nanograms (ng) per well. The purification of the receptors used in the ligand-receptor binding assays are well known in the art and are readily obtainable with methods familiar to one of ordinary skill in the art. After incubation for 18 hours at 4° C., nonspecific binding sites on the plate were blocked with 10 milligrams/milliliter (mg/ml) of bovine serum albumin (BSA) in Tris-buffered saline. […] Radiolabeled ligands were used at concentrations of 1 nM and binding was challenged separately with unlabeled synthetic peptides.
(§3) Following a three hour incubation, free ligand was removed by washing and bound ligand was detected by gamma counting. […] The IC50 data in micromoles (IC50 μM) are expressed as the average of duplicate data points±the standard deviation as shown in Table 2.

αvβ3 = target: T2, αvβ3 (Homo sapiens, UniProt P05106+P06756); assay: Ligand-receptor binding assay, immobilized αvβ3; conditions: for preference of inhibition of fibrinogen binding, αvβ3 versus αIIbβ3: comparison of half-maximal concentrations of Table 2
T2 construct: selected purified integrins were separately immobilized in Titertek microtiter wells
Excerpt: as §1, §2, §3

[2] = radiolabeled fibrinogen, average of duplicate data points ± standard deviation, read-out: αIIbβ3 (IC50 μM)
[3] = radiolabeled fibrinogen, average of duplicate data points ± standard deviation, read-out: αvβ3 (IC50 μM)

T1 sequence (P08514 32-887 limits assumed): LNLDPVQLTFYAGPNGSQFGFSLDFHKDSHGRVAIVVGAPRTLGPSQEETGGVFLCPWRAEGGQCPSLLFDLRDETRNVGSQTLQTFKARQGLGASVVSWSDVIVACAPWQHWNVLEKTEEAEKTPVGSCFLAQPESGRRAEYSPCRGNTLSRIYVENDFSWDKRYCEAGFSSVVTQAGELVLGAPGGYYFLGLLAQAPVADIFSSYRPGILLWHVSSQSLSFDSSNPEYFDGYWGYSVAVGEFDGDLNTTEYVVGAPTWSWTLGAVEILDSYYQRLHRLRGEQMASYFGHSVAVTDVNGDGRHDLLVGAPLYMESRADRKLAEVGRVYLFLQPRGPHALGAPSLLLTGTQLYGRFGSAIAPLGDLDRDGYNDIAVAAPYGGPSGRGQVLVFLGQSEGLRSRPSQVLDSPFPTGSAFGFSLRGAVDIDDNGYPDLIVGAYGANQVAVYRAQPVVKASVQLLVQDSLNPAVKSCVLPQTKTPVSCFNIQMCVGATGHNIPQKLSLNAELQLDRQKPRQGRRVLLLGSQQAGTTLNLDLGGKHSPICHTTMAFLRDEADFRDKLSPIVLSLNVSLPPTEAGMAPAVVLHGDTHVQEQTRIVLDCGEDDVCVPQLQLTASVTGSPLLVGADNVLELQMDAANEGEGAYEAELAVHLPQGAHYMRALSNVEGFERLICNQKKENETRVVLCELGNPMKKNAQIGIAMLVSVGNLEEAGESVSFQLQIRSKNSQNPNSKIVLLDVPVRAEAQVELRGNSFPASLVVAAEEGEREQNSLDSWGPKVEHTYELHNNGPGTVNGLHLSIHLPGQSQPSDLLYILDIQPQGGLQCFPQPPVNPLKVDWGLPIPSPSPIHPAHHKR
T1 sequence (P08514 891-1039 partner limits assumed): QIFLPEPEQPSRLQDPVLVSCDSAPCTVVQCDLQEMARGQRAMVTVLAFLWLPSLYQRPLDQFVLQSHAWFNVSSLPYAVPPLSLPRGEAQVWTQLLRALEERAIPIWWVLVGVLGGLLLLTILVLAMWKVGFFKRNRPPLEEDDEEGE
T1 sequence (P05106 27-788): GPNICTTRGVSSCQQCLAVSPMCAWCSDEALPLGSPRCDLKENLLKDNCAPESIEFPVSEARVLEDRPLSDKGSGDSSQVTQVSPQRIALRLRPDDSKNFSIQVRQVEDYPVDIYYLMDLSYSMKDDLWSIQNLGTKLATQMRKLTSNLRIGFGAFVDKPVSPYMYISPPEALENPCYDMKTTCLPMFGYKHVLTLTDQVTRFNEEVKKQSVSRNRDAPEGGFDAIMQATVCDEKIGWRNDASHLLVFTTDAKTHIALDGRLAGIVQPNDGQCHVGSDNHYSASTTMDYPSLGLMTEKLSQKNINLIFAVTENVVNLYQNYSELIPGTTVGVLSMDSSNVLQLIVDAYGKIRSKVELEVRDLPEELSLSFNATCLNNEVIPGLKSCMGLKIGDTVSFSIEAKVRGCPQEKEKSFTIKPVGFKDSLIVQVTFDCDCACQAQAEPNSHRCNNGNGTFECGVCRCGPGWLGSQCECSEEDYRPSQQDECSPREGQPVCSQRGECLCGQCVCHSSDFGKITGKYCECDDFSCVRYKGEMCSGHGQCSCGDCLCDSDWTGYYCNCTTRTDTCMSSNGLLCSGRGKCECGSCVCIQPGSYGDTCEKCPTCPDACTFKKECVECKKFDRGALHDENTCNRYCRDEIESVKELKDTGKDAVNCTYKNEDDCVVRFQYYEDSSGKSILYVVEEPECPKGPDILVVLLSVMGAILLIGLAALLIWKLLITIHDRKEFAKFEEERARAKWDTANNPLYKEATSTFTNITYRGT
T2 sequence (P06756 31-889 limits assumed): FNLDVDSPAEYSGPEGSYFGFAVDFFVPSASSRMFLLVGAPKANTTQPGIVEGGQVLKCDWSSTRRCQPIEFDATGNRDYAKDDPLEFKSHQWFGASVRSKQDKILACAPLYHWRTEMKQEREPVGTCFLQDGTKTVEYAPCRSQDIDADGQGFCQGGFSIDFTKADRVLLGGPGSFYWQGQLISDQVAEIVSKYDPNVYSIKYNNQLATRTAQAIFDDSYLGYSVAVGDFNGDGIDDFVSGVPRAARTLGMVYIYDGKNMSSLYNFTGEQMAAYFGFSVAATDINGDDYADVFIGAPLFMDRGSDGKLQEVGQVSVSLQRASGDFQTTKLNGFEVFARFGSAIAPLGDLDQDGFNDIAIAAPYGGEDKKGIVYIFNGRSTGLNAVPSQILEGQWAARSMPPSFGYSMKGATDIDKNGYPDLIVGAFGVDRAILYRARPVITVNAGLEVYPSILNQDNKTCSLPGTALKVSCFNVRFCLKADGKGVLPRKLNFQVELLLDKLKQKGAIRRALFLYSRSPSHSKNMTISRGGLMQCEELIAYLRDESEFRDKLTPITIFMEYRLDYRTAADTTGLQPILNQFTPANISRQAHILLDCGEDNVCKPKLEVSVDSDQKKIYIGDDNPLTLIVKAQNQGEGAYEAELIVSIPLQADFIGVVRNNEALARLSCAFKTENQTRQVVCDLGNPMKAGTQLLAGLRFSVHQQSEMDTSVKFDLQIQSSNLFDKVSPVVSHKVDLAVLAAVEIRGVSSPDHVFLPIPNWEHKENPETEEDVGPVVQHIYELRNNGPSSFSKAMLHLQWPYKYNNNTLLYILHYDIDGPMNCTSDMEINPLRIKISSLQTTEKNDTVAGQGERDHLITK
T2 sequence (P06756 891-1048 partner limits assumed): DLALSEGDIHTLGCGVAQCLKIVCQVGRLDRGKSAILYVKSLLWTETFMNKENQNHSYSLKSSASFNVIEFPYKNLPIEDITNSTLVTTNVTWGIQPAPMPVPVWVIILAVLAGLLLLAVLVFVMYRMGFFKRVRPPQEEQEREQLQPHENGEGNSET
T2 sequence (P05106 27-788): as the sequence (P05106 27-788) above

Structure (SMILES): CC(C)(C)OC(=O)N[C@@H](Cc1ccc(OCCCCNC(=N)N)cc1)C(=O)O [Compound 9]
reducing the number of branch points of new blood vessels [1]: effective at reducing the number of branch points

melting point: 70 °C
Structure (SMILES): CCCCS(=O)(=O)N[C@@H](Cc1ccc(OCCCCNC(=N)N)cc1)C(=O)O [Compound 7]

melting point: 70 °C
Structure (SMILES): CCCCS(=O)(=O)N[C@H](Cc1ccc(OCCCCNC(=N)N)cc1)C(=O)O [Compound 10]
inhibition of formation of new blood vessels induced by bFGF [1]: almost completely inhibited
reducing the number of branch points of new blood vessels [1]: effective at reducing the number of branch points

IC50 (αIIbβ3; [2]): 0.055 ± 0.007 µM
IC50 (αvβ3; [3]): 0.395 ± 0.21 µM
Structure (SMILES): CC(C)C[C@@H]1NC(=O)[C@@H](Cc2ccccc2)NC(=O)[C@H](CC(=O)O)NC(=O)CNC(=O)[C@H](CCCNC(=N)N)NC(=O)CNC1=O [Peptide 62179, cyclo (GRGDfL)] (cyclo(GRGD[dF]L))
preference of inhibition of fibrinogen binding, αvβ3 versus αIIbβ3 (αvβ3): either not as effective in blocking fibrinogen binding to αvβ3 or exhibited preferential inhibition of fibrinogen binding to αIIbβ3

Structure (SMILES): CC(C)[C@@H]1NC(=O)[C@@H](Cc2ccccc2)NC(=O)[C@H](CC(=O)O)NC(=O)[C@H](C)NC(=O)[C@H](CCCNC(=N)N)NC1=O [Peptide 62185, cyclo (RADfV)] (cyclo(RAD[dF]V))
preference of inhibition of fibrinogen binding, αvβ3 versus αIIbβ3 (αvβ3): preferential inhibition of fibrinogen binding to the αvβ3 receptor

melting point: 165 °C (dec.)
Structure (SMILES): Cl.Cl.N=C(N)c1ccc(N2CC(COc3ccc(CC(N)C(=O)O)cc3)OC2=O)cc1 (centres unmarked)

IC50 (αIIbβ3; [2]): 100 ± 0.001 µM
IC50 (αvβ3; [3]): 0.885 ± 0.16 µM
Structure (SMILES): CC(C)[C@@H]1NC(=O)[C@@H](Cc2ccccc2)NC(=O)[C@H](CC(=O)O)NC(=O)[C@H](C)NC(=O)[C@H](CCCN=C(N)N)NC1=O [Peptide 62185, cyclo (RADfV)] (cyclo(AD[dF]VR))

IC50 (αIIbβ3; [2]): 0.63 ± 0.18 µM
IC50 (αvβ3; [3]): 1.05 ± 0.07 µM
Structure (SMILES): CC(C)C[C@@H]1NC(=O)[C@@H](Cc2ccccc2)NC(=O)[C@H](CC(=O)O)NC(=O)CNC(=O)[C@H](CCCNC(=N)N)NC(=O)[C@H](C)NC1=O [Peptide 62175, cyclo (ARGDfL)] (cyclo(ARGD[dF]L))
preference of inhibition of fibrinogen binding, αvβ3 versus αIIbβ3 (αvβ3): either not as effective in blocking fibrinogen binding to αvβ3 or exhibited preferential inhibition of fibrinogen binding to αIIbβ3

Structure (SMILES): CCS(=O)(=O)NC(Cc1ccc(OCC2CN(c3ccc(C(=N)N)cc3)C(=O)O2)cc1)C(=O)O (centres unmarked) [Compound 18, 3-(4-amidinophenyl)-5-(4-(2-carboxy-2-N-ethyl-sulfonylaminoethyl)phenoxy)methyl-2-oxazolidinone]
anti-angiogenic properties (branch points) [1]: exhibited anti-angiogenic properties

Structure (SMILES): CSCC[C@H](NC(=O)[C@@H]1CCCN1C(=O)[C@H](CC(N)=O)NC(=O)CNC(=O)[C@H](CC(C)C)NC(=O)[C@H](CC(=O)O)NC(=O)[C@H](CS)NC(=O)[C@@H](NC(=O)[C@@H](NC(=O)[C@H](CCC(N)=O)NC(=O)[C@H](CCCNC(=N)N)NC(=O)[C@@H](N)[C@@H](C)O)C(C)C)C(C)C)C(=O)O [Peptide 62411] (H-TRQVVCDLGNPM-OH)
IC50 (αIIbβ3): > 100 µM
IC50 (αIIbβ3; read-out: αIIbβ3 IC50 (μM) VN, vitronectin, individual assay): > 100 µM
IC50 (αvβ3): > 100 µM

Structure (SMILES): CCCCS(=O)(=O)N[C@@H](Cc1ccc(OCCCCCNC(=N)N)cc1)C(=O)O [Compound 14]
inhibition of formation of new blood vessels induced by bFGF [1]: almost completely inhibited
reducing the number of branch points of new blood vessels [1]: effective at reducing the number of branch points

IC50 (αIIbβ3; [2]): 15 ± 7.84 µM
IC50 (αvβ3; [3]): 1.96 ± 0.62 µM
Structure (SMILES): CC(C)[C@@H]1NC(=O)[C@H](Cc2ccccc2)NC(=O)[C@H](CC(=O)O)NC(=O)CNC(=O)[C@@H](CCCNC(=N)N)NC(=O)CNC1=O [Peptide 62181, cyclo (GrGDFV)] (cyclo(G[dR]GDFV))
preference of inhibition of fibrinogen binding, αvβ3 versus αIIbβ3 (αvβ3): preferential inhibition of fibrinogen binding to the αvβ3 receptor

Structure (SMILES): CC1(C)C2CCC1(CS(=O)(=O)N[C@@H](Cc1ccc(OCCCCNC(=N)N)cc1)C(=O)O)C(=O)C2 (some centres unmarked) [Compound 12]
reducing the number of branch points of new blood vessels [1]: effective at reducing the number of branch points

Structure (SMILES): CCCS(=O)(=O)NC(Cc1ccc(OCC2CN(c3ccc(C(=N)N)cc3)C(=O)O2)cc1)C(=O)O (centres unmarked) [Compound 17, 3-(4-amidinophenyl)-5-(4-(2-carboxy-2-N-propyl-sulfonylaminoethyl)phenoxy)methyl-2-oxazolidinone]
anti-angiogenic properties (branch points) [1]: exhibited anti-angiogenic properties

IC50 (αIIbβ3; fibrinogen, individual assay, read-out: αIIbβ3 IC50 (μM) FG): > 100 µM
IC50 (αIIbβ3; vitronectin, individual assay, read-out: αIIbβ3 IC50 (μM) VN): > 100 µM
IC50 (αvβ3; fibrinogen, individual assay, read-out: αvβ3 IC50 (μM) FG): > 100 µM
Structure (SMILES): CC(C)C[C@H](NC(=O)[C@H](C)NC(=O)[C@H](CCC(=O)O)NC(=O)[C@H](CC(N)=O)NC(=O)[C@H](CC(N)=O)NC(=O)[C@H](CCCNC(=N)N)NC(=O)[C@@H](NC(=O)[C@@H](NC(=O)CN)C(C)C)C(C)C)C(=O)N[C@@H](C)C(=O)N[C@@H](CCCNC(=N)N)C(=O)N[C@@H](CC(C)C)C(=O)N[C@@H](CO)C(=O)O [Peptide 62503] (H-GVVRNNEALARLS-OH)
